pEC50: −log10 of the molar value.
molecular target: T1, human APJ receptor (Homo sapiens, UniProt P35414); assay: Intracellular cAMP accumulation assay (APJ hcAMP, HTRF); format: cell-based; conditions: HEK293 cells stably expressing human APJ receptor; inhibition of forskolin-mediated cAMP production; stated at end of example; read-out: Human APJ cAMP Potency Range
T1 construct: expressed in transfected cells
T1 sequence (P35414 1-380): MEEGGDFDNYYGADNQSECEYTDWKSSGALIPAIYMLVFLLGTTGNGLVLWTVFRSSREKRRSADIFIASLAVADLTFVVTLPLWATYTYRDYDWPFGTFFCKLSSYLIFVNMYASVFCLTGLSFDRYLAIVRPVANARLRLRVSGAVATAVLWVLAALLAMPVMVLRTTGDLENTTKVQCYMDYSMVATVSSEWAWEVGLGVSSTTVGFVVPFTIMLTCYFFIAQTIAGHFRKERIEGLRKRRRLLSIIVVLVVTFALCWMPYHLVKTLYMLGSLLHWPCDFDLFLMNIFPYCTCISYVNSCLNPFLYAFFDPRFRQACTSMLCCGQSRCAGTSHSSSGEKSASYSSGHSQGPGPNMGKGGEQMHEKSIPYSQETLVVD
Description: Intracellular cAMP Accumulation Assay
HEK293 cells stably expressing human APJ receptor were used to assess the activity of compounds. Cultured cells were detached and resuspended in the cAMP Homogeneous Time-Resolved Fluorescence (HTRF) assay buffer (Cisbio cat; #62AM4PEJ). The assay was performed in 384-well assay plates (Perkin-Elmer; cat #6008289) according to assay protocol provided by the manufacturer. Serial dilutions of a compound together with assay buffer containing […] IBMX and 2 μM forskolin were added to each well containing 5,000 cells and incubated for 30 minutes at room temperature. Subsequently, cAMP D2 reagent was added in the lysis buffer followed by the EuK antibody (Cisbio; cat #62AM4PEJ) and incubated for 60 min. The fluorescence emission ratio was measured using fluorometer. The intracellular cAMP concentrations (compound-stimulated inhibition of forskolin-mediated cAMP production) were calculated by extrapolation from a standard curve using known cAMP concentrations. The EC50 values were obtained by fitting the data to a sigmoidal concentration-response curve with variable slope. The maximal achievable inhibition of forskolin-induced cAMP levels (Ymax) for each compound was expressed as relative percentage of inhibition attained using pyroglutamated apelin-13 ((Pyr1)apelin-13) peptide, which was set to 100%.
The examples disclosed below were tested in the APJ in vitro assays described above and were found having human APJ cyclic AMP (hcAMP) activity. The EC50 value of each compound is presented at the end of the example description.
The biological activity of the exemplified compounds of this invention determined by the assay described above is shown at the end of each example.

Compound | pEC50
CCCCc1nc(=O)c(-c2nnc(Cc3noc4ccccc34)o2)c(O)n1-c1c(OC)cccc1OC [Example 1, 5-(5-(benzo[d]isoxazol-3-ylmethyl)-1,3,4-oxadiazol-2-yl)-2-butyl-1-(2,6-dimethoxyphenyl)-6-hydroxypyrimidin-4(1H)-one] | 8.00 to 11.00
CCCCc1nc(=O)c(-c2nnc(Cc3noc4ccccc34)o2)c(O)n1-c1c(OCC)cccc1OCC [Example 23, 5-(5-(Benzo[d]isoxazol-3-ylmethyl)-1,3,4-oxadiazol-2-yl)-2-butyl-1-(2,6-diethoxyphenyl)-6-hydroxypyrimidin-4(1H)-one] | 8.00 to 11.00

same assay, conditions: Table 1; HEK293 cells stably expressing human APJ receptor; read-out: hAPJ cAMP EC50 Potency range

Compound | pEC50
CCCCc1nc(=O)c(-c2nnc(Cc3ccc(Cl)cc3)o2)c(O)n1-c1c(OC)cccc1OC [Example 2, 2-butyl-5-{5-[(4-chlorophenyl)methyl]-1,3,4-oxadiazol-2-yl}-1-(2,6-dimethoxyphenyl)-6-hydroxy-1,4-dihydropyrimidin-4-one] | 8.00 to 11.00
C=CCCc1nc(=O)c(-c2nnc(Cc3noc4ccccc34)o2)c(O)n1-c1c(OC)cccc1OC [Example 3, 5-[5-(1,2-benzoxazol-3-ylmethyl)-1,3,4-oxadiazol-2-yl]-2-(but-3-en-1-yl)-1-(2,6-dimethoxyphenyl)-6-hydroxy-1,4-dihydropyrimidin-4-one] | 8.00 to 11.00
CCCCc1nc(=O)c(-c2nnc(Cc3noc4ccccc34)o2)c(O)n1-c1c(CC)cccc1CC [Example 4, 5-[5-(1,2-benzoxazol-3-ylmethyl)-1,3,4-oxadiazol-2-yl]-2-butyl-1-(2,6-diethylphenyl)-6-hydroxy-1,4-dihydropyrimidin-4-one] | 8.00 to 11.00
CCCCc1nc(=O)c(-c2nnc(Cc3csc(C)n3)o2)c(O)n1-c1c(OC)cccc1OC [Example 5, 2-butyl-1-(2,6-dimethoxyphenyl)-6-hydroxy-5-{5-[(2-methyl-1,3-thiazol-4-yl)methyl]-1,3,4-oxadiazol-2-yl}-1,4-dihydropyrimidin-4-one] | 8.00 to 11.00
CCCCc1nc(=O)c(-c2nnc(Cn3ccccc3=O)o2)c(O)n1-c1c(OC)cccc1OC [Example 6, 2-butyl-1-(2,6-dimethoxyphenyl)-6-hydroxy-5-{5-[(2-oxo-1,2-dihydropyridin-1-yl)methyl]-1,3,4-oxadiazol-2-yl}-1,4-dihydropyrimidin-4-one] | 8.00 to 11.00
COc1cccc(OC)c1-n1c(CCC(C)C)nc(=O)c(-c2nnc(CN3CCCC3=O)o2)c1O [Example 7, 1-(2,6-dimethoxyphenyl)-6-hydroxy-2-(3-methylbutyl)-5-{5-[(2-oxopyrrolidin-1-yl)methyl]-1,3,4-oxadiazol-2-yl}-1,4-dihydropyrimidin-4-one] | 8.00 to 11.00
CCCCc1nc(=O)c(-c2nnc(CN3CCCC3=O)o2)c(O)n1-c1c(OC)cccc1OC [Example 8, 2-butyl-1-(2,6-dimethoxyphenyl)-6-hydroxy-5-{5-[(2-oxopyrrolidin-1-yl)methyl]-1,3,4-oxadiazol-2-yl}-1,4-dihydropyrimidin-4-one] | 8.00 to 11.00
CCCCc1nc(=O)c(-c2nnc(Cc3nc(-c4ccccn4)no3)o2)c(O)n1-c1c(OC)cccc1OC [Example 9, 2-butyl-1-(2,6-dimethoxyphenyl)-6-hydroxy-5-(5-{[3-(pyridin-2-yl)-1,2,4-oxadiazol-5-yl]methyl}-1,3,4-oxadiazol-2-yl)-1,4-dihydropyrimidin-4-one] | 8.00 to 11.00
COc1cccc(OC)c1-n1c(CCC(C)C)nc(=O)c(-c2nnc(Cn3ccccc3=O)o2)c1O [Example 10, 1-(2,6-dimethoxyphenyl)-6-hydroxy-2-(3-methylbutyl)-5-{5-[(2-oxo-1,2-dihydropyridin-1-yl)methyl]-1,3,4-oxadiazol-2-yl}-1,4-dihydropyrimidin-4-one] | 8.00 to 11.00
C=CCCc1nc(=O)c(-c2nnc(Cc3nc(-c4ccccn4)no3)o2)c(O)n1-c1c(OC)cccc1OC [Example 11, 2-(but-3-en-1-yl)-1-(2,6-dimethoxyphenyl)-6-hydroxy-5-(5-{[3-(pyridin-2-yl)-1,2,4-oxadiazol-5-yl]methyl}-1,3,4-oxadiazol-2-yl)-1,4-dihydropyrimidin-4-one] | 8.00 to 11.00
COc1cccc(OC)c1-n1c(CCCC(F)(F)F)nc(=O)c(-c2nnc(Cc3noc4ccccc34)o2)c1O [Example 12, 5-[5-(1,2-benzoxazol-3-ylmethyl)-1,3,4-oxadiazol-2-yl]-1-(2,6-dimethoxyphenyl)-6-hydroxy-2-(4,4,4-trifluorobutyl)-1,4-dihydropyrimidin-4-one] | 8.00 to 11.00
CCCCc1nc(=O)c(-c2nnc(Cc3noc4ccccc34)o2)c(O)n1-c1c(C)cccc1OC [Example 13, 5-[5-(1,2-benzoxazol-3-ylmethyl)-1,3,4-oxadiazol-2-yl]-2-butyl-6-hydroxy-1-(2-methoxy-6-methylphenyl)-1,4-dihydropyrimidin-4-one] | 8.00 to 11.00
C=CCCc1nc(=O)c(-c2nnc(Cc3ccc(Cl)cc3)o2)c(O)n1-c1c(OC)cccc1OC [Example 14, 2-(but-3-en-1-yl)-5-{5-[(4-chlorophenyl)methyl]-1,3,4-oxadiazol-2-yl}-1-(2,6-dimethoxyphenyl)-6-hydroxy-1,4-dihydropyrimidin-4-one] | 8.00 to 11.00
CCCCc1nc(=O)c(-c2nnc(Cc3noc4ccccc34)o2)c(O)n1-c1c(Br)cccc1Br [Example 15, 5-[5-(1,2-benzoxazol-3-ylmethyl)-1,3,4-oxadiazol-2-yl]-2-butyl-1-(2,6-dibromophenyl)-6-hydroxy-1,4-dihydropyrimidin-4-one] | 8.00 to 11.00
COc1cccc(OC)c1-n1c(CCC(C)C)nc(=O)c(-c2nnc(CN3CCOCC3=O)o2)c1O [Example 16, 4-({5-[1-(2,6-dimethoxyphenyl)-6-hydroxy-2-(3-methylbutyl)-4-oxo-1,4-dihydropyrimidin-5-yl]-1,3,4-oxadiazol-2-yl}methyl)morpholin-3-one] | 8.00 to 11.00
C=CCCc1nc(=O)c(-c2nnc(Cc3noc4ccccc34)o2)c(O)n1-c1c(C)cccc1OC [Example 17, 5-[5-(1,2-benzoxazol-3-ylmethyl)-1,3,4-oxadiazol-2-yl]-2-(but-3-en-1-yl)-6-hydroxy-1-(2-methoxy-6-methylphenyl)-1,4-dihydropyrimidin-4-one] | 8.00 to 11.00
CCCCc1nc(=O)c(-c2nnc(Cc3noc4ccccc34)o2)c(O)n1-c1c(OC)ncnc1OC [Example 18, 5-[5-(1,2-benzoxazol-3-ylmethyl)-1,3,4-oxadiazol-2-yl]-2-butyl-1-(4,6-dimethoxypyrimidin-5-yl)-6-hydroxy-1,4-dihydropyrimidin-4-one] | 8.00 to 11.00
CCCCc1nc(=O)c(-c2nnc(Cc3noc4ccccc34)o2)c(O)n1-c1c(Cl)cccc1Cl [Example 19, 5-[5-(1,2-benzoxazol-3-ylmethyl)-1,3,4-oxadiazol-2-yl]-2-butyl-1-(2,6-dichlorophenyl)-6-hydroxy-1,4-dihydropyrimidin-4-one] | 8.00 to 11.00
COc1cccc(OC)c1-n1c(CC2CC2)nc(=O)c(-c2nnc(Cc3noc4ccccc34)o2)c1O [Example 20, 5-[5-(1,2-benzoxazol-3-ylmethyl)-1,3,4-oxadiazol-2-yl]-2-(cyclopropylmethyl)-1-(2,6-dimethoxyphenyl)-6-hydroxy-1,4-dihydropyrimidin-4-one] | 8.00 to 11.00
COc1cccc(OC)c1-n1c(CC2CC2)nc(=O)c(-c2nnc(Cc3ccc(Cl)cc3)o2)c1O [Example 21, 5-{5-[(4-chlorophenyl)methyl]-1,3,4-oxadiazol-2-yl}-2-(cyclopropylmethyl)-1-(2,6-dimethoxyphenyl)-6-hydroxy-1,4-dihydropyrimidin-4-one] | 8.00 to 11.00
COc1cccc(OC)c1-n1c(CC2CC2)nc(=O)c(-c2nnc(Cc3nc(-c4ccccn4)no3)o2)c1O [Example 22, 2-(cyclopropylmethyl)-1-(2,6-dimethoxyphenyl)-6-hydroxy-5-(5-{[3-(pyridin-2-yl)-1,2,4-oxadiazol-5-yl]methyl}-1,3,4-oxadiazol-2-yl)-1,4-dihydropyrimidin-4-one] | 8.00 to 11.00

same assay, conditions: Table 2; HEK293 cells stably expressing human APJ receptor; read-out: hAPJ cAMP EC50 Potency range

Compound | pEC50
CCCCc1nc(O)c(-c2nnc(Cc3csc(C)n3)o2)c(=O)n1C(C)c1cccnc1 (racemic) [Example 124, 2-butyl-6-hydroxy-5-{5-[(2-methyl-1,3-thiazol-4-yl)methyl]-1,3,4-oxadiazol-2-yl}-3-[1-(pyridin-3-yl)ethyl]-3,4-dihydropyrimidin-4-one] | 6.52 to 7.00
